Several values for one entry are separate records, joined by “and”; a condition that tells them apart may be missing. Equal entries are not always repeated. Toxic doses and inconclusive results are not listed.

The subject of this assay is CD2F1 mice, L1210 leukemia ip, survival T/C. Briefly: NCI In Vivo Anticancer Drug Screen. Data for tumor model L1210 Leukemia (intraperitoneal) in CD2F1 (CDF1) mice. As to conditions: higher = longer survival. The method, boiled down:
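Implant tumor; dose compound or vehicle; measure endpoint in both groups; report treated divided by control.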

Where [1] appears, read: endpoint: mean survival time, dose: 100.0 mg/kg/injection, schedule: Q04DX003 (ip), vehicle: Klucel (hydroxypropylcellulose) (HPC).
Where [2] appears, read: endpoint: mean survival time, dose: 200.0 mg/kg/injection, schedule: Q04DX003 (ip), vehicle: Klucel (hydroxypropylcellulose) (HPC).
The mark [3] stands for this setting: endpoint: mean survival time, dose: 100.0 mg/kg/injection, schedule: Q04DX003 (ip), vehicle: saline with Tween-80.
The mark [4] stands for this setting: endpoint: mean survival time, dose: 200.0 mg/kg/injection, schedule: Q04DX003 (ip), vehicle: saline with Tween-80.
[5] abbreviates: endpoint: mean survival time, dose: 400.0 mg/kg/injection, schedule: Q04DX003 (ip), vehicle: saline with Tween-80.
Where [6] appears, read: endpoint: mean survival time, dose: 100.0 mg/kg/injection, schedule: Q01DX001 (ip), vehicle: saline with Tween-80.
The mark [7] stands for this setting: endpoint: mean survival time, dose: 200.0 mg/kg/injection, schedule: Q01DX001 (ip), vehicle: saline with Tween-80.
[8] abbreviates: endpoint: mean survival time, dose: 400.0 mg/kg/injection, schedule: Q01DX001 (ip), vehicle: saline with Tween-80.
Setting [9] is: endpoint: mean survival time, dose: 50.0 mg/kg/injection, schedule: Q01DX009 (ip), vehicle: saline with Tween-80.
The mark [10] stands for this setting: endpoint: mean survival time, dose: 100.0 mg/kg/injection, schedule: Q01DX009 (ip), vehicle: saline with Tween-80.
Setting [11] is: endpoint: mean survival time, dose: 200.0 mg/kg/injection, schedule: Q01DX009 (ip), vehicle: saline with Tween-80.

As to `O=S(=O)(N=C1C(Cl)=C(Cl)C(=NS(=O)(=O)c2ccccc2)C(Cl)=C1Cl)c1ccccc1`, the T/C under setting [1] was 97 % of control; the T/C under setting [2] is 95 % of control; the T/C (endpoint: mean survival time, dose: 400.0 mg/kg/injection, schedule: Q04DX003 (ip), vehicle: Klucel (hydroxypropylcellulose) (HPC)) is 93 % of control.
As for `S=C1SC2CCCCC2S1` (stereo not given), the T/C is, setting by setting: (endpoint: mean survival time, dose: 100.0 mg/kg/injection, schedule: Q01DX001 (ip), vehicle: Klucel (hydroxypropylcellulose) (HPC)) 104 % of control; (endpoint: mean survival time, dose: 200.0 mg/kg/injection, schedule: Q01DX001 (ip), vehicle: Klucel (hydroxypropylcellulose) (HPC)) 107 % of control; (endpoint: mean survival time, dose: 400.0 mg/kg/injection, schedule: Q01DX001 (ip), vehicle: Klucel (hydroxypropylcellulose) (HPC)) 98 % of control.
`Clc1ccc(-c2nnc(-c3ccc(Cl)cc3)nn2)cc1`: the T/C runs as follows: under setting [3], 96 % of control; under setting [4], 90 % of control; under setting [5], 88 % of control.
On to `FC(F)(F)c1ccc2nc(CI)c(CI)nc2c1`, for which the T/C reads like this: (endpoint: mean survival time, dose: 1.5 mg/kg/injection, schedule: Q01DX009 (ip), vehicle: saline with Tween-80) 104 % of control; (endpoint: mean survival time, dose: 3.0 mg/kg/injection, schedule: Q01DX009 (ip), vehicle: saline with Tween-80) 110 % of control; (endpoint: mean survival time, dose: 6.0 mg/kg/injection, schedule: Q01DX009 (ip), vehicle: saline with Tween-80) 96 % of control; (endpoint: mean survival time, dose: 12.0 mg/kg/injection, schedule: Q01DX009 (ip), vehicle: saline with Tween-80) 104 % of control; (endpoint: mean survival time, dose: 24.0 mg/kg/injection, schedule: Q01DX009 (ip), vehicle: saline with Tween-80) 88 % of control.
As for `NC(=O)c1csc(COC(CO)CO)n1`, the T/C is 93 % of control (endpoint: median survival time, dose: 15.38 mg/kg/injection, schedule: Q01DX009 (ip), vehicle: water); 97 % of control (endpoint: median survival time, dose: 30.75 mg/kg/injection, schedule: Q01DX009 (ip), vehicle: water); 101 % of control (endpoint: median survival time, dose: 61.5 mg/kg/injection, schedule: Q01DX009 (ip), vehicle: water); 100 % of control (endpoint: median survival time, dose: 123.0 mg/kg/injection, schedule: Q01DX009 (ip), vehicle: water).
For the molecule `O=C1OC(=O)C2C3c4ccccc4C(c4c3c(-c3ccccc3)c3ccccc3c4-c3ccccc3)C12` (stereo not given), the T/C was 87 % of control under setting [6], 87 % of control under setting [7] and 93 % of control under setting [8].
As for `CCc1cc(CC)c(CC)c(Br)c1CC`, the T/C was 98 % of control under setting [9], 108 % of control under setting [10], 98 % of control under setting [3] and 101 % of control under setting [4].
As to `COC(=O)C(Cl)(Cl)c1nc(NC(C)=O)[nH]c(=O)c1Cl`, the T/C is 95 % of control under setting [3], 98 % of control under setting [4] and 91 % of control under setting [5].
Turning to `CCCCCCCCCCCCCCCCCCC(C)c1ccccc1` (stereo not given), the T/C is 101 % of control under setting [6], 97 % of control under setting [7] and 101 % of control under setting [8].
As for `C1=C\C[n+]2ccccc2-c2cccc[n+]2C/1`, the T/C was 95 % of control (endpoint: mean survival time, dose: 7.5 mg/kg/injection, schedule: Q01DX001 (ip), vehicle: saline); 96 % of control (endpoint: mean survival time, dose: 7.5 mg/kg/injection, schedule: Q04DX003 (ip), vehicle: saline); 95 % of control (endpoint: mean survival time, dose: 15.0 mg/kg/injection, schedule: Q01DX001 (ip), vehicle: saline); 97 % of control (endpoint: mean survival time, dose: 15.0 mg/kg/injection, schedule: Q04DX003 (ip), vehicle: saline); 98 % of control (endpoint: mean survival time, dose: 30.0 mg/kg/injection, schedule: Q01DX001 (ip), vehicle: saline).
Regarding `CCCCC(O)C(C)C` (stereo not given), the T/C is, setting by setting: under setting [9], 100 % of control; under setting [10], 103 % of control; under setting [11], 106 % of control.
Turning to `O=[N+]([O-])c1ccc(CSCc2ccc([N+](=O)[O-])cc2)cc1`, the T/C (endpoint: mean survival time, dose: 50.0 mg/kg/injection, schedule: Q04DX003 (ip), vehicle: Klucel (hydroxypropylcellulose) (HPC)) was 98 % of control; the T/C under setting [1] was 92 % of control; the T/C under setting [2] is 97 % of control.
Regarding `Nc1nc2c(ncn2-c2cccc(NC(=O)Nc3ccc(S(=O)(=O)F)c(Cl)c3)c2)c(=O)[nH]1` (tested in a mixture with another compound), the T/C by setting is: under setting [6], 97 % of control; under setting [7], 95 % of control.
On to `COc1ccc(OC)c(N=C2C(=O)Nc3ccc(Br)cc32)c1`, for which the T/C runs as follows: (endpoint: mean survival time, dose: 100.0 mg/kg/injection, schedule: Q04DX002 (ip), vehicle: saline with Tween-80) 91 % of control; (endpoint: mean survival time, dose: 200.0 mg/kg/injection, schedule: Q04DX002 (ip), vehicle: saline with Tween-80) 91 % of control.
Consider `Nc1ccccc1SC(CC(=O)c1ccccc1)c1ccc2c(c1)OCO2` (stereo not given), for which the T/C was 95 % of control under setting [10]; 93 % of control under setting [11]; 100 % of control (endpoint: mean survival time, dose: 400.0 mg/kg/injection, schedule: Q01DX009 (ip), vehicle: saline with Tween-80).
`O=c1[nH]c(SCc2ccccc2)nc(Cc2ccccc2)c1CCO`: the T/C under setting [3] is 95 % of control, the T/C under setting [4] is 94 % of control and the T/C under setting [5] is 90 % of control.
Take `C1CCC(C2CCCC[N-]2)[N-]C1.C1CCC(C2CCCC[N-]2)[N-]C1.[Cl][Ru][Cl]` (stereo not given): the T/C is 93 % of control (endpoint: mean survival time, dose: 3.13 mg/kg/injection, schedule: Q04DX003 (ip), vehicle: distilled water + Tween-80); 88 % of control (endpoint: mean survival time, dose: 6.25 mg/kg/injection, schedule: Q04DX003 (ip), vehicle: distilled water + Tween-80); 92 % of control (endpoint: mean survival time, dose: 12.5 mg/kg/injection, schedule: Q04DX003 (ip), vehicle: distilled water + Tween-80); 88 % of control (endpoint: mean survival time, dose: 25.0 mg/kg/injection, schedule: Q04DX003 (ip), vehicle: distilled water + Tween-80); 97 % of control (endpoint: mean survival time, dose: 50.0 mg/kg/injection, schedule: Q04DX003 (ip), vehicle: distilled water + Tween-80).
Regarding `C(=N/NC1=NCCN1)/c1c2ccccc2c(/C=N\NC2=NCCN2)c2ccccc12`, the T/C (endpoint: median survival time, dose: 0.37 mg/kg/injection, schedule: Q01DX009 (ip), vehicle: suspension in saline) is 152 % of control; the T/C (endpoint: median survival time, dose: 1.56 mg/kg/injection, schedule: Q01DX009 (ip), vehicle: saline) was 170 % of control; the T/C (endpoint: median survival time, dose: 3.0 mg/kg/injection, schedule: Q01DX009 (ip), vehicle: suspension in saline) was 172 % of control; the T/C (endpoint: median survival time, dose: 3.12 mg/kg/injection, schedule: Q01DX009 (ip), vehicle: saline) is 370 % of control; the T/C (endpoint: median survival time, dose: 6.25 mg/kg/injection, schedule: Q01DX009 (ip), vehicle: saline) is 172 % of control; the T/C (endpoint: median survival time, dose: 12.5 mg/kg/injection, schedule: Q01DX009 (ip), vehicle: saline) was 164 % of control and 180 % of control. Further, the T/C (endpoint: median survival time, dose: 25.0 mg/kg/injection, schedule: Q01DX009 (ip), vehicle: saline) is 176 % of control and the T/C (endpoint: median survival time, dose: 48.0 mg/kg/injection, schedule: Q01DX009 (ip), vehicle: suspension in saline) is 113 % of control.
For `CSc1nn(C2OC(COC(=O)c3ccccc3)C(OC(=O)c3ccccc3)C2OC(=O)c2ccccc2)c(=O)[nH]c1=O` (stereo not given), the T/C reads like this: (endpoint: mean survival time, dose: 12.5 mg/kg/injection, schedule: Q01DX005 (ip), vehicle: distilled water + Tween-80) 98 % of control; (endpoint: mean survival time, dose: 25.0 mg/kg/injection, schedule: Q01DX005 (ip), vehicle: distilled water + Tween-80) 93 % of control; (endpoint: mean survival time, dose: 50.0 mg/kg/injection, schedule: Q01DX005 (ip), vehicle: distilled water + Tween-80) 97 % of control; (endpoint: mean survival time, dose: 100.0 mg/kg/injection, schedule: Q01DX005 (ip), vehicle: distilled water + Tween-80) 93 % of control; (endpoint: mean survival time, dose: 200.0 mg/kg/injection, schedule: Q01DX005 (ip), vehicle: distilled water + Tween-80) 95 % of control.
As for `CC1OC(OC(=O)c2ccc([N+](=O)[O-])cc2)CC(NC(=O)C(F)(F)F)C1OC(=O)c1ccc([N+](=O)[O-])cc1` (stereo not given), the T/C (endpoint: mean survival time, dose: 25.0 mg/kg/injection, schedule: Q01DX005 (ip), vehicle: Klucel (hydroxypropylcellulose) (HPC)) is 94 % of control and the T/C (endpoint: mean survival time, dose: 50.0 mg/kg/injection, schedule: Q01DX005 (ip), vehicle: Klucel (hydroxypropylcellulose) (HPC)) is 89 % of control.
Consider `O=C(O)/C=C\C(=O)Nc1ccccc1NC(=O)/C=C/C(=O)O`, for which the T/C is 110 % of control (endpoint: mean survival time, dose: 100.0 mg/kg/injection, schedule: Q04DX003 (ip), vehicle: saline); 99 % of control (endpoint: mean survival time, dose: 200.0 mg/kg/injection, schedule: Q04DX003 (ip), vehicle: saline); 101 % of control (endpoint: mean survival time, dose: 400.0 mg/kg/injection, schedule: Q04DX003 (ip), vehicle: saline).
